The values below come from patent US20020028193A1, “Recombinant beta2-adrenergic receptor delivery and use in treating airway and vascular diseases” (priority 2000, published 2002).

Values joined by “and” are separate entries in the source; they are usually repeats but may differ in a detail not shown here. Equal values may be shown once.

Data set [1] deals with T1, β2AR (Rattus norvegicus, UniProt P10608). The note with it: SPOC1 cell membranes.
The target of data set [2] is glucocorticoid receptor alpha (expressed from pRShGRalpha) (Homo sapiens) (UniProt P04150). Put plainly: cell_activity. The settings on record: MMTV-pT81LUC in HepG2, 0.1 uM dexamethasone.
glucocorticoid receptor alpha (expressed from pRShGRalpha) (Homo sapiens), sequence (P04150 whole entry): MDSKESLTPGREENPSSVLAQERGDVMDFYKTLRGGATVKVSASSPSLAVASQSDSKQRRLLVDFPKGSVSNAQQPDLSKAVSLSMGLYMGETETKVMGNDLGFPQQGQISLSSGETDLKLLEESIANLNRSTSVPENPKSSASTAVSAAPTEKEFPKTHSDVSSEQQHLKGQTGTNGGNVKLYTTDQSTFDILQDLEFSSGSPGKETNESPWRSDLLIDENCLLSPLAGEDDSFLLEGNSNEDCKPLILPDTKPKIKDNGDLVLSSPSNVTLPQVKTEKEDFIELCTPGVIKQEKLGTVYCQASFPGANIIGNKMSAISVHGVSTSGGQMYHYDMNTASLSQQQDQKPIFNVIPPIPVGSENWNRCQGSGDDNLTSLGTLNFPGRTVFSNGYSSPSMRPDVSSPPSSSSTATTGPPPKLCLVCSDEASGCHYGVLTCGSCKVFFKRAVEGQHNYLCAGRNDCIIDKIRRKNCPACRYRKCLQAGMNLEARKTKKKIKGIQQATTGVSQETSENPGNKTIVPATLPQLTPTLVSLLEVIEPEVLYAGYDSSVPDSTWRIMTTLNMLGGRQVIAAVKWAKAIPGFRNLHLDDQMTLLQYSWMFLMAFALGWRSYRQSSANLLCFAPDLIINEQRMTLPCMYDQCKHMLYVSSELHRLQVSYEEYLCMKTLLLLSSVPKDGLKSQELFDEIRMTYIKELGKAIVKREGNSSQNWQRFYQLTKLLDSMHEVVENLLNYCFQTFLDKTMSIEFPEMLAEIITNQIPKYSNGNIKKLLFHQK
The target in data set [3] is T1, β2AR. The data set is described as follows: Cyclic AMP accumulation in SPOC1 cells (radioimmunoassay). Details: Because SPOC1 cells express a wild-type β2AR; endogenous in cells; host or cells: SPOC1 rat tracheal epithelial cells. The class given is cell-based. On the procedure: Cyclic AMP accumulation was measured by radioimmunoassay. Significant differences were determined by one way ANOVA and Neuman-Keuls test.
In order to determine if the recombinant β2AR expressed in clonal SPOC1 cells is able to functionally couple to adenylyl cyclase, cyclic AMP radioimmunoassays are performed using lysates. Mock-infected and clonal SPOC1 cells are plated at a density of 100,000 cells/well in 12-well dishes (Costar, Cambridge, Mass.). Cells are treated with adrenergic agonists and the phosphodiesterase inhibitor isobutylmethylxanthine (IBMX) for 10 min. Cellular cyclic AMP levels are determined by radioimmunoassay using the Biotrak CAMP Assay System (Amersham Life Science, Arlington Heights, Ill.). […] These experiments are repeated four times with four different SPOC1 cell platings.

Data set [4] relates to β2AR-luciferase fusion genes. The data set is described as follows: Dexamethasone induction of β2AR-luciferase fusion genes transiently transfected into HepG2 cells. The note with it: pβ2AR(−643/+126); 0.1 μM dexamethasone, 8 hrs. The class given is cell-based, human. On the procedure: HepG2 cells were transiently transfected with pRShGRα, pRSVβ-ga1, and either pβ2AR(−62/+126), pβ2AR(−152/+126), pβ2AR(−643/+126), pβ2AR(−1115/+126), pβ2AR(−2552/+126), pβ2AR(−3129/+126), or N-600 prATLUC. Transfected cells were incubated for 48 hours prior to addition of dexamethasone. Luciferase activity for each construct is expressed relative to that obtained with pβ2AR(−62/+126) in the absence of dexamethasone.
Human HepG2 cells were transiently transfected with pRShGRα, pRSVβ-gal, and either pβ2AR(−3129/+126) or pβ2ARm1 (−3129/+126) as described in the specification. After transfection, the cells were incubated for 8 hours in either the absence or presence of 0.1 μM dexamethasone and cells were harvested. Values are means±S.E. of data from five independent experiments, each performed in triplicate. Asterisks indicate a significant (p<0.05) difference in luciferase activity from untreated and dexamethasone-treated cells as determined by Student's t-test.
In order to determine whether the six putative GREs were functional, six β2AR-luciferase fusion gene deletion mutants were generated. […] To test the effect of dexamethasone on expression of the truncated β2AR-luciferase fusion genes, HepG2 cells transfected with each of the six fusion genes were incubated with either vehicle or 0.1 μM dexamethasone for 8 hrs, and luciferase activity was determined. […]

The next data set deals with GRE-pT81LUC fusion genes. The data set is described as follows: Dexamethasone induction of putative GREs fused to heterologous thymidine kinase promoter (pT81LUC) in HepG2 cells. The class given is cell-based, human. The note with it: 0.1 μM dexamethasone. On the procedure:
Plasmid constructs with the luciferase gene under the control of the tk promoter and various putative GREs (see FIG. 8 for sequences) were tested for luciferase activity after transfection into HepG2 cells that were co-transfected with pRShGRα. Transfected cells were incubated for 48 hours prior to addition of 0.1 μM dexamethasone.
To further examine the functionality of the putative glucocorticoid response elements, fragments containing either GRE1, GRE5, or GRE2, GRE3 and GRE4 together were fused to pT81LUC, a luciferase expression plasmid driven by a minimal thymidine kinase promoter.^102 Sequences of the double stranded oligonucleotides containing GRE1, GRE5 and the MMTV GRE are shown in FIG. 10. […] Activity of GRE5-pT81LUC was induced 3.2-fold in the presence of 0.1 μM dexamethasone (FIG. 12), a value that was higher than that observed with any of the β2AR-luciferase fusion genes that included GRE5. Activity of GRE1-pT81LUC was not induced by 0.1 μM dexamethasone (FIG. 12). […] This level of fold-induction was similar to that obtained with MMTVsequence fused to pT81LUC.

The subject of data set [5] is β2AR-luciferase fusion genes. The data set is described as follows: Dexamethasone induction of β2AR-luciferase fusion genes in transiently transfected SPOC1 cells. In kind it is cell-based, rat. The settings on record: pβ2AR(−3129/+126) in SPOC1 cells; 0.1 μM dexamethasone, 8 hrs.
A further data set deals with mucociliary clearance. The settings on record: inhaled, humans, controls and asthmatic individuals; cited from earlier work.
Data set [6] has as its target glucocorticoid receptor (recombinant human GR) (Homo sapiens, UniProt P04150 P04150:1-777). The data set is described as follows: competition; unlabeled competitor did not compete with labeled GRE5 at up to 250-fold excess. The settings on record: chain copies: 2. As to the method: To further characterize the ability of GRE₅ to bind glucocorticoid receptor in vitro, we performed electrophoretic mobility shift assays with recombinant human glucocorticoid receptor and serial dilutions of various competitor oligonucleotides was performed.

The target in data set [7] is glucocorticoid receptor alpha (expressed from pRShGRalpha) (Homo sapiens, UniProt P04150 P04150:1-777). Put plainly: cell_activity; GRE5-pT81LUC in HepG2, 0.1 uM dexamethasone. The note with it: tags: co-transfected expression plasmid pRShGRalpha in HepG2 cells; chain copies: 2; label: 32P. The text has this:
To further examine the functionality of the putative glucocorticoid response elements, fragments containing either GRE₁, GRE₅, or GRE₂, GRE₃ and GRE₄ together were fused to pT81LUC, a luciferase expression plasmid driven by a minimal thymidine kinase promoter.¹⁰² Sequences of the double stranded oligonucleotides containing GRE₁, GRE₅ and the MMTV GRE are shown in FIG. 10.

T1 sequence (P10608 whole entry): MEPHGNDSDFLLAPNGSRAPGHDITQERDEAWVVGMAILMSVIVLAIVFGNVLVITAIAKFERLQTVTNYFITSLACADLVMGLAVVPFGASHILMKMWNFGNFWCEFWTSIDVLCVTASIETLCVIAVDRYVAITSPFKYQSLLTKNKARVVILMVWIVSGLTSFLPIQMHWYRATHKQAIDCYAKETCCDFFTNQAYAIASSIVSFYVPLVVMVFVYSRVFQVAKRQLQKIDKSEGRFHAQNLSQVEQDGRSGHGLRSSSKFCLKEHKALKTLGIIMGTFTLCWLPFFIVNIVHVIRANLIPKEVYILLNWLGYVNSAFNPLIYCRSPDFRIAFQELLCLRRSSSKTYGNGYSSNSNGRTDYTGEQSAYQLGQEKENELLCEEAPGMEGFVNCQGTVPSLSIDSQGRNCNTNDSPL
glucocorticoid receptor (recombinant human GR), sequence (P04150 whole entry, one chain of several): as the sequence (P04150 whole entry) above
glucocorticoid receptor alpha (expressed from pRShGRalpha), sequence (P04150 whole entry, the tested form may be a part, one chain of several): as the sequence (P04150 whole entry) above

In the case of `CC(C)(C)NCC(O)COc1cccc2[nH]c(C#N)c(I)c12` (stereo not shown) [[^125I]CYP, [^125I]cyanoiodopindolol], the binding site concentration on β2AR [1] ([125I]CYP saturation) amounted to 60 fmol/mg protein. In addition, the Kd at β2AR [1] (read-out: [125I]CYP dissociation constant, 37° C., 2 hour, nonspecific binding 0.1 μM (−)-propranolol, representative Scatchard plot) is 0.01 nM. MMTV GRE yielded an activity (fold induction) in [2] of 4. Take `CC(C)NCC(O)c1ccc(O)c(O)c1` (stereo not shown) [isoproterenol]: at β2AR [3], the “Cyclic AMP production” value was 3.17±0.57 fmol/min/mg protein and 5.95±1.4 fmol/min/mg protein. For the molecule `C[C@@H]1C[C@H]2[C@@H]3CCC4=CC(=O)C=C[C@]4(C)[C@@]3(F)[C@@H](O)C[C@]2(C)[C@@]1(O)C(=O)CO` [dexamethasone], the results for the “induction of luciferase activity” value (in data set [4]; with GRE-pT81LUC fusion genes (GRE5-pT81LUC); with GRE-pT81LUC fusion genes (MMTV-pT81LUC fusion gene (positive control))) were “approximately 1.5 fold”, 3.2 fold and approximately 4 fold, respectively. In addition, the “induction in luciferase activity” value in [5] is on record as approximately 2 fold. As for `CCC(NC(C)C)C(O)c1ccc(O)c2[nH]c(=O)ccc12` (stereo not shown) [procaterol], the “effect on mucociliary clearance” value with mucociliary clearance is on record as “no effect”. With isobutylmethylxanthine [IBMX], the “Cyclic AMP accumulation” value at β2AR [3] (100 μM IBMX, 10 min at 37° C., control 0.27±0.08, statistically insignificant increase) is reported as 0.40±0.04 fmol/min/mg protein.

With `CC(C)(C)NCC(O)c1cc(O)cc(O)c1` (stereo not shown) [terbutaline], in the data set with mucociliary clearance, the “effect on mucociliary clearance” value was “increases”.

B1: m1GRE5 (core printed only) (dsDNA)
DNA 1: GGGTGAGCTATTCT
DNA 2: AGAATAGCTCACCC
For the molecule B1, in data set [6], the binding result is “no binding”.

B2: GRE5 (rat beta2AR gene, 35 bp oligonucleotide; core printed only) (dsDNA)
DNA 1: GGGTGAGCTGTTCT
DNA 2: AGAACAGCTCACCC
For the molecule B2, in data set [7], the activity came out at 3.2 fold induction.
